The source made the active and inactive calls. The rule behind the calls is not given here.
Experiments:
RAW264.7 [1] = assay: Antiinflammatory activity in mouse RAW264.7 assessed as inhibition of LPS-induced NO production preincubated for 12 hrs followed by LPS stimulation and measured after 6 hrs by Griess reagent based assay; format: functional, cell-based
RAW264.7 [2] = assay: Cytotoxicity against mouse RAW264.7 cells assessed as effect on cell viability measured after 12 hrs by MTT assay; format: functional
Mus musculus [3] = assay: Antiinflammatory activity in carrageenan-induced acute arthritis ICR mouse assessed as downregulation of IL-2 secretion in plasma measured at 10 to 20 mg/kg, po for 10 days followed by carrageenan stimulation and measured after 6 hrs by ELISA; format: functional, organism-based; details: dose 10-20 mg/kg, time 10.0 day, DDE = dose-dependent effect
RAW264.7 [4] = assay: Antiinflammatory activity in LPS induced mouse RAW264.7 cells assessed as downregulation of IL-2 secretion at 0.1 to 5 uM incubated for 12 hrs followed by LPS stimulation and measured after 24 hrs by ELISA; format: functional, cell-based; details: dose 0.1-5 µM, time 36.0 hrs, DDE = dose-dependent effect
Mus musculus [5] = assay: Antiinflammatory activity in carrageenan-induced acute arthritis ICR mouse assessed as downregulation of IL-5 secretion in plasma measured at 10 to 20 mg/kg, po for 10 days followed by carrageenan stimulation and measured after 6 hrs by ELISA; format: functional, organism-based; details: dose 10-20 mg/kg, time 10.0 day, DDE = dose-dependent effect
[6] = molecular target: T1, Toll-like receptor 4 (Mus musculus) (UniProt Q9QUK6); assay: Binding affinity to mouse TLR4 in RAW264.7 cells assessed as thermal stabilization at 1 uM and measured after 12 hrs by CETSA analysis; format: cell-based
T1 sequence (whole entry): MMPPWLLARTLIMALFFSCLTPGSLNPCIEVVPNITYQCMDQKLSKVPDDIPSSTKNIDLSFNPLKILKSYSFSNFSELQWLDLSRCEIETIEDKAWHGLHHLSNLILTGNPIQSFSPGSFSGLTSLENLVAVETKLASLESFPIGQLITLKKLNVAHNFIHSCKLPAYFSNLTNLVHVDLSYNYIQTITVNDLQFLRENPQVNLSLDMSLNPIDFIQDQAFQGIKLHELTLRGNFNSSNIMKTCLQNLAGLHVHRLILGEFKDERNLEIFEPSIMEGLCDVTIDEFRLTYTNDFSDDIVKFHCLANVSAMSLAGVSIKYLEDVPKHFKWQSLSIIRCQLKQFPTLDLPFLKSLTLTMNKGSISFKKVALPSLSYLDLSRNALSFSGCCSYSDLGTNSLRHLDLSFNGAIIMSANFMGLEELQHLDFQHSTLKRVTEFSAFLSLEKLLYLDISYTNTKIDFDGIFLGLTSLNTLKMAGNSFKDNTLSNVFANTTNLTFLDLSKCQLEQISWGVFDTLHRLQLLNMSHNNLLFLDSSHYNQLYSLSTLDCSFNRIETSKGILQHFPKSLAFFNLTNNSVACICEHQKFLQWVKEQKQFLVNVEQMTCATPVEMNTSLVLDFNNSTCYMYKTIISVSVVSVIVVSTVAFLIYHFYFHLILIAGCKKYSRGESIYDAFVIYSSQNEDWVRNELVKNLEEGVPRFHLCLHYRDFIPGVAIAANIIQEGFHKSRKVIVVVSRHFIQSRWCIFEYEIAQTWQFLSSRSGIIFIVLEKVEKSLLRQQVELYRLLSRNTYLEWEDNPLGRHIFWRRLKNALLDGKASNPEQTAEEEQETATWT

RAW264.7 [7] = assay: Antiinflammatory activity in LPS induced mouse RAW264.7 cells assessed as downregulation of IL-4 secretion at 0.1 to 5 uM incubated for 12 hrs followed by LPS stimulation and measured after 24 hrs by ELISA; format: functional, cell-based; details: dose 0.1-5 µM, time 36.0 hrs, DDE = dose-dependent effect
Mus musculus [8] = assay: Antiinflammatory activity in carrageenan-induced acute arthritis ICR mouse assessed as reduction in relative neutrophil to lymphocyte ratio at 10 mg/kg, po for 10 days followed by carrageenan stimulation and measured upto 6 hrs by hematology analyzer; format: functional; details: time 10 day
Mus musculus [9] = assay: Antiinflammatory activity in carrageenan-induced acute arthritis ICR mouse assessed as reduction in paw swelling at 10 to 20 mg/kg, po for 10 days followed by carrageenan stimulation and measured upto 6 hrs by vernier caliper method; format: functional, organism-based; details: dose 10-20 mg/kg, time 10.0 day
Mus musculus [10] = assay: Antiinflammatory activity in carrageenan-induced acute arthritis ICR mouse assessed as downregulation of IL-4 secretion in plasma measured at 10 to 20 mg/kg, po for 10 days followed by carrageenan stimulation and measured after 6 hrs by ELISA; format: functional, organism-based; details: dose 10-20 mg/kg, time 10.0 day, DDE = dose-dependent effect
RAW264.7 [11] = assay: Antiinflammatory activity in mouse RAW264.7 cells assessed as increase in IKK beta phosphorylation at 0.1 to 5 uM preincubated for 12 hrs followed by LPS stimulation and measured after 24 hrs by western blot assay; format: functional, cell-based; details: dose 0.1-5 µM, time 36.0 hrs, DDE = dose-dependent effect
Mus musculus [12] = assay: Antiinflammatory activity in carrageenan-induced acute arthritis ICR mouse assessed as reduction in relative neutrophil to lymphocyte ratio at 20 mg/kg, po for 10 days followed by carrageenan stimulation and measured upto 6 hrs by hematology analyzer; format: functional; details: time 10 day
RAW264.7 [13] = assay: Antiinflammatory activity in mouse RAW264.7 cells assessed as increase in IKK alpha phosphorylation at 0.1 to 5 uM preincubated for 12 hrs followed by LPS stimulation and measured after 24 hrs by western blot assay; format: functional, cell-based; details: dose 0.1-5 µM, time 36.0 hrs, DDE = dose-dependent effect
RAW264.7 [14] = assay: Antiinflammatory activity in mouse RAW264.7 cells assessed as suppression of NF-kappa B expression at 0.1 to 5 uM preincubated for 12 hrs followed by LPS stimulation and measured after 24 hrs by western blot assay; format: functional, cell-based; details: dose 0.1-5 µM, time 36.0 hrs, DDE = dose-dependent effect
RAW264.7 [15] = assay: Antiinflammatory activity in LPS induced mouse RAW264.7 cells assessed as downregulation of IL-5 secretion at 0.1 to 5 uM incubated for 12 hrs followed by LPS stimulation and measured after 24 hrs by ELISA; format: functional, cell-based; details: dose 0.1-5 µM, time 36.0 hrs, DDE = dose-dependent effect

| SMILES | IC50 (RAW264.7 [1]) [µM] | CC50 (RAW264.7 [2]) [µM] | also measured |
| --- | --- | --- | --- |
| CCCC[C@H](CC(=O)OC)c1c2c(c(O)c3c1O[C@@H](C)[C@H](C)C3=O)C=CC(C)(C)O2 | 4.23 | 574 | – |
| C[C@@H]1C(=O)c2c(O)c([C@@H](CC(=O)O)c3ccccc3)c3c(c2O[C@@H]1C)C=CC(C)(C)O3 (single isomer, unassigned) | 11.3 | 583 | – |
| CNC(=N)NCCC[C@H](N)C(=O)O [TILARGININE ACETATE] | 20.3 | 214 | – |
| CCCCC[C@H](CC(=O)O)c1c(O)c2c(c3c1OC(C)(C)C=C3)O[C@H](C)[C@H](C)C2=O | 5.17 | 636 | – |
| CCCCCC(CC(=O)O)c1c2c(c(O)c3c1O[C@H](C)[C@@H](C)C3=O)C=CC(C)(C)O2 (stereo partly drawn) | 6.88 | 668 | – |
| CCCC1CC(=O)Oc2c(C(=O)[C@H](C)[C@H](C)O)c(O)c3c(c21)OC(C)(C)C=C3 (stereo partly drawn) | 8.42 | 552 | – |
| CCCCC[C@H](CC(=O)OC)c1c(O)c2c(c3c1OC(C)(C)C=C3)O[C@H](C)[C@H](C)C2=O | 0.92 | 660 | Activity (Mus musculus [3]): Dde; Activity (RAW264.7 [4]): Dde; Activity (Mus musculus [5]): Dde; Activity [6]: Active; Activity (RAW264.7 [7]): Dde; Ratio (Mus musculus [8]): 0.89; Activity (Mus musculus [9]): Active; Activity (Mus musculus [10]): Dde; Activity (RAW264.7 [11]): Dde; Ratio (Mus musculus [12]): 0.74; Activity (RAW264.7 [13]): Dde; Activity (RAW264.7 [14]): Dde; Activity (RAW264.7 [15]): Dde |
| CCCC(CC(=O)OC)c1c2c(c(O)c3c1O[C@H](C)[C@@H](C)C3=O)C=CC(C)(C)O2 (stereo partly drawn) | 5.14 | 649 | – |
| CCCC(CC(=O)O)c1c2c(c(O)c3c1O[C@H](C)[C@@H](C)C3=O)C=CC(C)(C)O2 (stereo partly drawn) | 8.44 | 663 | – |
| C[C@H](O)[C@H](C)C(=O)c1c(O)c2c(c3c1OC(=O)C[C@H]3c1ccccc1)OC(C)(C)C=C2 | 9.34 | 517 | – |
| CC/C=C\C[C@H](CC(=O)O)c1c2c(c(O)c3c1O[C@@H](C)[C@H](C)C3=O)C=CC(C)(C)O2 | 18.4 | 550 | – |
| CCC[C@@H](CC(=O)OC)c1c(O)c2c(c3c1OC(C)(C)C=C3)O[C@@H](C)[C@H](C)C2=O | 2.91 | 698 | – |
| C[C@H]1Oc2c(c(O)c3c(c2[C@@H](CC(=O)O)c2ccccc2)OC(C)(C)C=C3)C(=O)[C@@H]1C | 12.6 | 524 | – |
| COC(=O)C[C@@H](c1ccccc1)c1c(O)c2c(c3c1OC(C)(C)C=C3)O[C@H](C)[C@H](C)C2=O | 11.3 | 601 | – |
| CCCCCC(CC(=O)OC)c1c2c(c(O)c3c1O[C@H](C)[C@@H](C)C3=O)C=CC(C)(C)O2 (stereo partly drawn) | 4.05 | 687 | – |
| COC(=O)C[C@@H](c1ccccc1)c1c2c(c(O)c3c1O[C@@H](C)[C@H](C)C3=O)C=CC(C)(C)O2 | 12.5 | 594 | – |
| C[C@H](C(=O)c1c(O)c2c(c3c1OC(=O)C[C@H]3c1ccccc1)OC(C)(C)C=C2)[C@@H](C)O | 10.1 | 507 | – |
| C[C@@H]1Oc2c(c(O)c3c(c2[C@@H](CC(=O)O)c2ccccc2)OC(C)(C)C=C3)C(=O)[C@H]1C | 13.8 | 569 | – |
| CCCCC(CC(=O)O)c1c2c(c(O)c3c1O[C@H](C)[C@@H](C)C3=O)C=CC(C)(C)O2 (stereo partly drawn) | 7.43 | 654 | – |
| C[C@@H]1Oc2c3c(c([C@@H](CC(=O)O)c4ccccc4)c(O)c2C(=O)[C@@]1(C)O)OC(C)(C)C=C3 | 8.23 | 588 | – |
